“Also recorded” adds a separate entry of the source. Read-outs that look alike come from different tables or passages of the source. Numbered stars: 1 amine (or outer) side, 2 acyl side, 3 side chain; on linkers, the order of the positions; unused ones are H or OH. Bridge positions count the residues as written; N and C are the ends. Side chains are listed from the residue outwards. Peptide text beside a SMILES is read from it. * marks the point of attachment. C18 diacid = O=C(O)CCCCCCCCCCCCCCCCC(=O)*; γGlu = O=C(O)[C@H](CCC(=O)[*:2])N[*:1]; Ethylenediamine = C(CN[*:2])N[*:1]; Palmitoyl = CCCCCCCCCCCCCCCC(=O)*; Fumaroyl = O=C(O)/C=C/C(=O)*; Suc = O=C(CCC(=O)[*:2])[*:1]; Lauroyl = CCCCCCCCCCCC(=O)*; AEEA = NCCOCCOCC(=O)O
Columns and labels:
male SD rats [1] = details: one animal per row, observed 48 hours
Protocol: In an experiment about acute toxicity of subcutaneous administration, male SD rats weighing 200-230 g were dosed in a range between 60 µg/Kg and 960 µg/Kg. Observation was made for 48 hours after subcutaneous administration. Toxic response and mortality of the rats were preliminarily observed, and time of death and doses without mortality were recorded. The level of acute toxicity of the polypeptides was preliminarily determined based on the doses without mortality.

[2] = Determination of half-lives of polypeptides (plasma, LC-MS); details: for half-life: C57 BL/6, mouse, plasma, iv; for AUClast 0-30 min: C57 BL/6 mice, dosage per compound 0.48, 0.96 or 1 mpk; for AUClast 0-30 min / T1/2: i.v.; for T1/2: Table 1, mice
human ETA receptor = target: T1, human ETA receptor (Homo sapiens, UniProt P25101); assay: Selectivity of polypeptides on human ETA receptor (IP-One Gq kit, % of positive control ET1); assay type: cell-based; details: read-out: hETAR agonist activity, percentage of activity relative to ET1
T1 construct: expressed in transfected cells; host or cells: 293T-17 cells, transient transfection
T1 sequence (P25101 21-427): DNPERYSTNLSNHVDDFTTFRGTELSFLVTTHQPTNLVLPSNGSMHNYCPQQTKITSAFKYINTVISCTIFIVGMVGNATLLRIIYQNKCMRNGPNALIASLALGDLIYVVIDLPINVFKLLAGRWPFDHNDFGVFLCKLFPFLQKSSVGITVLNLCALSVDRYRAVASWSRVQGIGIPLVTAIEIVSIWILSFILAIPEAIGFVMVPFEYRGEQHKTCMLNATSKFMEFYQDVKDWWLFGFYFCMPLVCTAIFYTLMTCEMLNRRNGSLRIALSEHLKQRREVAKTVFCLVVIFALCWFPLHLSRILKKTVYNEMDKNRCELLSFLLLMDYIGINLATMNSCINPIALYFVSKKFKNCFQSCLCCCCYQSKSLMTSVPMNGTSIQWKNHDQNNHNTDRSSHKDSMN
Protocol: 293T-17 cells were seeded at a density of 650,000 cells per well in a 6-well plate and cultured overnight in an incubator at 37°C and 5% CO2. Afterward, the cells were transfected with an expression vector, PCDNA3.1-hETA which contained a human ETA receptor gene, at a plasmid concentration of 2.5 µg per well. The cells were further cultured for 48 hours, and green fluorescence expression was observed under a fluorescence microscope. The cells were then digested with trypsin and counted. The activity of compounds on the human ETA receptor was determined with the IP-One Gq kit from Cisbio Bioassays. The cells were suspended in Stim Buffer provided in the kit and the cell suspension was added to a 96-well detection plate at 7 µL cell suspension (containing 30,000 cells) per well. The polypeptides to be screened for activity (prepared according to the Preparation Example of the invention) and polypeptide human endothelin ET1 as positive control were dissolved in Stim B to be at a concentration of 2×, and 7 µL was added to the test cells, while 7 µL of PBS solution was added to the cells in the negative control wells. Human endothelin ET1 (ET1: […] (C1-C15,C3-C11)) set forth in SEQ ID No. 85 was used as the positive control polypeptide. The plate was sealed and incubated at 37°C for 1 h in a cell culture incubator. Detection wells, positive control wells, and PBS control wells were each added with 3 µL of IP1 d2 working solution and 3 µL of IP1 Tb cryptotate Antibody working solution. The plate was sealed and incubated in the dark at room temperature (25°C±5°C) for 1 h. The plate seal was removed, and the […] at 665 nm and 620 nm was measured with an ID5 microplate reader. The ratio of the acceptor emission signal to the donor emission signal, i.e., the value of (signal at 665 nm/signal at 620 nm)×10^4, was calculated for each well. With F3 representing the average value of values of signal at 665 nm/signal at 620 nm determined for the test sample at a specific concentration, F5 representing the average value of values of signal at 665 nm/signal at 620 nm determined for the positive control human endothelin ET1 at the same concentration, and T3 representing the average value of values of signal at 665 nm/signal at 620 nm determined for the PBS negative control, the percentage of activity of the test polypeptide sample relative to the positive control sample ET1 = (F3-T3)×100/(F5-T3) (see Table 6). hETA sequence (NCBI accession number L06622.1).

male SD rats [3] = assay: in vivo; details: intravenous (tail vein) 240 µg/Kg; one animal per row; observed 24 hours
Protocol: In an experiment about acute toxicity of intravenous administration, male SD rats weighing 200-230 g were dosed in a range between 480 µg/Kg and 30 µg/Kg via tail vein injection in a descending order of dosage. […] Toxic response and mortality of the rats were preliminarily observed, and time of death and doses without mortality of the rats were recorded. The level of acute toxicity of the polypeptides was preliminarily determined based on the doses without mortality.

Compound	Observations of Animal Status (male SD rats [1]; subcutaneous 240 µg/Kg)	Observations of Animal Status (male SD rats [1]; subcutaneous 360 µg/Kg)	Observations of Animal Status (male SD rats [1]; subcutaneous 480 µg/Kg)	half-life [2] [min]	AUClast 0-30 min [2] [ng·h/mL]	T1/2 [2]	activation at 10 µM (human ETA receptor) [%]	activation at 100 µM (human ETA receptor) [%]	Observations of Animal Status (male SD rats [3])
CCCCCCCCCCCC(=O)N[C@@H](CCC(=O)O)C(=O)NCCOCCOCC(=O)NCCCC[C@H](NC(=O)[C@H](Cc1c[nH]cn1)NC(=O)[C@H](C)NC(=O)[C@H](Cc1ccccc1)NC(=O)[C@H](Cc1ccc(O)cc1)NC(=O)[C@@H](NC(=O)[C@H](C)NC(=O)[C@H](CCC(=O)O)NC(=O)[C@H](CCC(=O)O)NC(=O)[C@H](CC(=O)O)NC(=O)/C=C/C(=O)O)C(C)C)C(=O)N[C@@H](CC(=O)O)C(=O)N[C@H](C(=O)N[C@H](C(=O)N[C@@H](Cc1c[nH]c2ccccc12)C(=O)O)[C@@H](C)CC)C(C)C [BX238-Na] (Fumaroyl-DEEAVYFAHK([AEEA-Glu-Lauroyl])DVIW-OH)	No obvious abnormal reaction observed within 48 hours	No obvious abnormal reaction observed within 48 hours	Developed rapid breathing at 50 minutes after administration, showed no willingness to move, recovered 2 hours after administration; also recorded: Developed rapid breathing at 21 minutes after administration, died at 26 minutes after administration; also recorded: Developed rapid breathing at 10 minutes after administration, died at 47 minutes after administration; also recorded: Developed rapid breathing at 45 minutes after administration, showed no willingness to move, recovered 2 hours after administration; also recorded: Developed rapid breathing at 20 minutes after administration, died at 55 minutes after administration						
CCCCCCCCCCCCCCCC(=O)NCCOCCOCC(=O)NCCOCCOCC(=O)N[C@@H](CCC(=O)NCCCC[C@H](NC(=O)[C@H](Cc1c[nH]cn1)NC(=O)[C@H](C)NC(=O)[C@H](Cc1ccccc1)NC(=O)[C@H](Cc1ccc(O)cc1)NC(=O)[C@@H](NC(=O)[C@H](C)NC(=O)[C@H](CCC(=O)O)NC(=O)[C@H](CCC(=O)O)NC(=O)[C@H](CC(=O)O)NC(=O)/C=C/C(=O)O)C(C)C)C(=O)N[C@@H](CC(=O)O)C(=O)N[C@H](C(=O)N[C@H](C(=O)N[C@@H](Cc1c[nH]c2ccccc12)C(=O)O)[C@@H](C)CC)[C@@H](C)CC)C(=O)O [BX-70] (Fumaroyl-DEEAVYFAHK([γGlu-AEEA-AEEA-Palmitoyl])DIIW-OH)				41	1701	T1/2=41min;	-15.8	13.5	
CCCCCCCCCCCC(=O)NCCOCCOCC(=O)NCCOCCOCC(=O)N[C@@H](CCC(=O)NCCCC[C@H](NC(=O)[C@H](Cc1c[nH]cn1)NC(=O)[C@H](C)NC(=O)[C@H](Cc1ccccc1)NC(=O)[C@H](Cc1ccc(O)cc1)NC(=O)[C@@H](NC(=O)[C@H](C)NC(=O)[C@H](CCC(=O)O)NC(=O)[C@H](CCC(=O)O)NC(=O)[C@H](CC(=O)O)NC(=O)/C=C/C(=O)O)C(C)C)C(=O)N[C@@H](CC(=O)O)C(=O)N[C@H](C(=O)N[C@H](C(=O)N[C@@H](Cc1c[nH]c2ccccc12)C(=O)O)[C@@H](C)CC)[C@@H](C)CC)C(=O)O [BX-71] (Fumaroyl-DEEAVYFAHK([γGlu-AEEA-AEEA-Lauroyl])DIIW-OH)				23	2049	T1/2=23min;	-9.66	-9.49	
CC[C@H](C)[C@H](NC(=O)[C@@H](NC(=O)[C@H](CC(=O)O)NC(=O)[C@H](CC(C)C)NC(=O)[C@H](Cc1c[nH]cn1)NC(=O)[C@H](C)NC(=O)[C@H](Cc1ccccc1)NC(=O)[C@H](Cc1ccc(O)cc1)NC(=O)[C@@H]1CCCCNC(=O)CC[C@H](NC(=O)[C@H](CC(=O)O)NC(=O)CCC(=O)O)C(=O)N[C@@H](CCC(=O)O)C(=O)N[C@@H](C)C(=O)N1)C(C)C)C(=O)N[C@@H](Cc1c[nH]c2ccccc12)C(=O)O [BX-76] (Suc-DEEAKYFAHLDVIW-OH; lactam 2-5)				3.6	250		-20.9	-7.56	
CC[C@H](C)[C@H](NC(=O)[C@H](CC(=O)O)NC(=O)[C@H](CCCCNC(=O)CC[C@H](NC(=O)COCCOCCNC(=O)COCCOCCNC(=O)CCCCCCCCCCCCCCCCC(=O)O)C(=O)O)NC(=O)[C@H](Cc1c[nH]cn1)NC(=O)[C@H](C)NC(=O)[C@H](Cc1ccccc1)NC(=O)[C@H](Cc1ccc(O)cc1)NC(=O)[C@@H](NC(=O)[C@H](C)NC(=O)[C@H](CCC(=O)O)NC(=O)[C@H](CCC(=O)O)NC(=O)[C@H](CC(=O)O)NC(=O)/C=C/C(=O)O)C(C)C)C(=O)N[C@H](C(=O)N[C@@H](Cc1c[nH]c2ccccc12)C(N)=O)[C@@H](C)CC [BX-86] (Fumaroyl-DEEAVYFAHK([γGlu-AEEA-AEEA-C18 diacid])DIIW-NH2)				63	1146		18.3	10.4	
CC[C@H](C)[C@H](NC(=O)[C@H](CC(=O)O)NC(=O)[C@H](CC(C)C)NC(=O)[C@H](Cc1c[nH]cn1)NC(=O)[C@H](C)NC(=O)[C@H](Cc1ccccc1)NC(=O)[C@H](Cc1ccc(O)cc1)NC(=O)[C@@H](NC(=O)[C@H](C)NC(=O)[C@H](CCC(=O)O)NC(=O)[C@H](CCC(=O)O)NC(=O)[C@H](CC(=O)O)NC(=O)CCC(=O)NCCNC(=O)COCCOCCNC(=O)COCCOCCNC(=O)CC[C@H](NC(=O)CCCCCCCCCCCCCCCCC(=O)O)C(=O)O)C(C)C)C(=O)N[C@H](C(=O)N[C@@H](Cc1c[nH]c2ccccc12)C(=O)O)[C@@H](C)CC [BX-256] ({C18 diacid-γGlu-AEEA-AEEA-Ethylenediamine-Suc}-DEEAVYFAHLDIIW-OH)									Developed rapid breathing and limbs turned pale purple, and developed convulsions at 16 minutes after administration; died at 27 minutes after administration; also recorded: Developed rapid breathing, the limbs and face turned purple, and had weak limbs at 15 minutes after administration; died at 21 minutes after administration

— EP4702986A1, “POLYPEPTIDE AND USE THEREOF” (Biocells (Beijing) Biotech Co., Ltd., priority 2023, dated 2024)
